SMILES strings stand for the structures. Counter-ions that a name gives are not always drawn. Square brackets hold non-standard residues; d marks the D form. Peptide text beside a SMILES is read from it. * marks the point of attachment. X1 = C[N+](C)(C)[C@@H](Cc1ccccc1)C(=O)*; NMe2Phe = CN(C)[C@@H](Cc1ccccc1)C(=O)*; NMeF = CN[C@@H](Cc1ccccc1)C(=O)O

We go through 10 compounds from US5422341A, “Motilin-like polypeptides with gastrointestinal motor stimulating activity” (Ohmeda Pharmaceutical Products Division Inc., priority 1993, dated 1995).

Data set [1] concerns canine gastrointestinal tract. Briefly: Contractile activity in the canine gastrointestinal tract. Format: in vivo, dog. As to conditions: anesthetized dogs, intra-arterial injection to a duodenal segment; amount giving 50% of the calibration response to field stimulation. Here is the method:
Mongrel dogs of either sex were anesthetized with sodium pentobarbital 65 mg/kg intravenously. A mid-line incision was made in the abdomen. A duodenal segment was located, the terminal arteries to that segment were identified, and the closest possible artery of the appropriate size was rubbed clean of fat and fascia. A needle of suitable diameter was bent at an angle and the tip inserted in the cleaned artery. The needle was held in position in the artery for approximately 30 seconds until vascular spasm has relaxed and then a catheter assembly was inserted into the artery and tied into position with 000 silk sutures. The fine polyethylene catheter (10-15 cm) was cut to a point at one end with a needle inserted at the other end. The hub of the needle was fitted with a 3-way stopcock and the catheter assembly was filled with heparinized Krebs Ringer bicarbonate containing 10 mM glucose. A bolus of Krebs (free of air) was injected into the arterial catheter and the distribution of blanching in the segment noted. If the area was too large, collateral arteries may be tied off as long as circulation to the area was maintained. A Bass type strain gauge was then sutured to the serosa, and oriented so that circular muscle contractions can be recorded on a Beckman R611 dynograph. Silver wire electrodes were inserted subserosally on either side of the strain gauge and were connected through stimulus isolation units to a Grass S88 electrical stimulator. Electrical field stimulation was applied at 40 V 0.5 ms and 5 pps and the amplitude of the pen recorder was set to contain the contractile response.
All peptides to be injected were dissolved in Krebs and serial dilutions were prepared so that for any concentration the maximum volume to be injected was 1 ml. All solutions except stock Krebs were held on ice for the day of the experiment and discarded at the end of the day. For determination of a dose-response curve, the site was first injected with a bolus of approximately 1 ml of heparinized Krebs to provide a flush control. Peptide agonists (in volumes of 1 ml flushed with 1 ml of Krebs) were injected in logarithmic increments until a response which was maximal in amplitude was obtained. The injection site was then flushed with Krebs containing 0.1% BSA to displace any peptide remaining in the arterial line. For peptides acting at the motilin receptor, care was taken not to inject supramaximal doses as these will induce tachyphylaxis. Therefore, as responses become apparent, 0.3 or 0.5 log unit increments were used. A site was used for a dose-response determination only every 1/2 to 1 hour.
The amplitude of the calibration response to field stimulation in each site was measured and used as 100% for that site. The amplitude of the response to the agonist at each dose was determined, calculated as a % of the calibration response and plotted against the concentration. The ED50 of the response represents the amount of agonist required to produce a response which was 50% of the calibration response.

The format of data set [2] is in vitro ADME, hog. As to conditions: pH 7. Here is the method:
Like most small linear polypeptides, motilin is believed to be metabolized lo by the brush border cells of the kidney. Therefore, kidney homogenate was chosen as the model system for assessing the relative in vivo biostability of the peptides of this invention. All peptides to be studied were incubated in hog kidney (Pel Freeze, Inc., Rogers, Ark.) (2% w/v; final volume=4 ml; buffer=HEPES pH 7.0) at 25° C. Both initial substrate concentration and internal standard (Fmoc-Gly) concentration were 0.5 mg/ml. In order to determine suitable incubation times and sampling intervals, two experiments were conducted with each polypeptide. The first run served as a rough estimate of peptide stability. All sampling was performed in duplicate. Sample volume was 180 μl.
Sample clean-up was performed by addition of 20 μl of 100% TCA (final volume=200 μl; final TCA concentration=10%). The sample was vortexed for from 5 to 10 seconds to ensure equilibration, then centrifuged to spin out the precipitated proteins. Analysis was carried out on a Waters HPLC system with a WISP autoinjector, a 5μ Vydac C-18 analytical column, and a Waters 481 UV detector set at 214 nm. Injection volume was 80 μl. Initial solvent conditions were […] in Milli-Q water with a 35 minute gradient running to 63% acetonitrile/37% (0.1%) TFA at 1 ml/min.
Polypeptide substrate and metabolite peaks were ratioed to the internal standard and the duplicate sample ratios were averaged. The avenge ratio for the peptide substrate was expressed as a percentage and plotted versus time. First-order kinetics was assumed for data treatment. The rate of disappearance of the substrate was calculated using the Enzfitter program (Biosoft). Relative half-lives were determined from the relationship: […]

The target of data set [3] is segments of rabbit duodenum (Oryctolagus cuniculus, UniProt G1T803). Briefly: Rabbit duodenal smooth muscle strip tissue bath assay. Format: cell-based. As to conditions: negative logarithm of the dose giving 50% of the maximal response to motilin; isotonic contraction of rabbit duodenum segments. The gist of the method:
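Isotonic contraction of rabbit duodenal segments after 1 h equilibration and 10^-4 M acetylcholine challenge; cumulative compound curve over 10^-11 to 10^-4 M, then 10^-7 M motilin. Runs discarded if final acetylcholine response differed >5%. EC50 at 50% of maximal motilin response, reported as pEC50.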

The target in another data set is T1, motilin receptor (Oryctolagus cuniculus, UniProt G1T803).
T1 construct: from tissue; host or cells: rabbit antral smooth muscle membranes
The experiment in a line: Determination of motilin receptor binding affinity (displacement of [125I-Tyr7, Nle13]motilin(porcine)). The arrangement: species or system rabbit. The conditions noted are these: negative logarithm of the concentration displacing 50% of [125I-Tyr7, Nle13]motilin(porcine) from rabbit antral smooth muscle membranes; read-out: pIC50 (converted). Here is the method: The motilin receptor binding affinity of the peptides of this invention was determined by using the general procedure of Bormans, Peelers and Vantrappen, Regul. […] Fitting was performed using the iterative least-squares procedure of the SAS-software package (SAS Institute, Inc., Cary, N.C., USA).
On the technique in general: In a radioligand displacement assay an active substance lowers the binding of a labelled ligand.

segments of rabbit duodenum, sequence (G1T803 1-400): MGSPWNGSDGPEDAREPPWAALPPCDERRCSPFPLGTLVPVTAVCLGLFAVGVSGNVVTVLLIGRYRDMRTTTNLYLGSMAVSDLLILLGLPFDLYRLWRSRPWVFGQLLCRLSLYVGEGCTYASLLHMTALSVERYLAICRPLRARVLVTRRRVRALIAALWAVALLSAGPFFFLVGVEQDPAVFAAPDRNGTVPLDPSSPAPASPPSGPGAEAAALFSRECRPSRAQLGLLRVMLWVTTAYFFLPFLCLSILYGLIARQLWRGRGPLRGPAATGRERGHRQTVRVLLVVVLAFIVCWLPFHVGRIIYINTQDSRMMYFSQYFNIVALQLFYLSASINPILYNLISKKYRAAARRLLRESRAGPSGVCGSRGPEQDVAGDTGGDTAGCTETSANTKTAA
T1 sequence (G1T803 1-400): as above

Compound `CC[C@H](C)[C@H](NC(=O)[C@@H]1CCCN1C(=O)[C@@H](NC(=O)[C@H](Cc1ccccc1)NC)C(C)C)C(=O)N[C@@H](Cc1ccccc1)C(=O)N[C@H](C(=O)N[C@@H](Cc1ccc(O)cc1)C(=O)NCC(=O)N[C@@H](CCC(=O)O)C(=O)N[C@@H](CC(C)C)C(=O)N[C@@H](CCC(N)=O)C(=O)N[C@H](CCCNC(=N)N)C(=O)N[C@@H](CC(C)C)C(=O)N[C@@H](CCCCN)C(N)=O)[C@@H](C)O` (H-[NMeF]VPIFTYGELQ[dR]LK-NH2) came in with an ED50 in data set [1] of 0.025 nmol. The compound further displayed a T1/2 in data set [2] of 41.
What is called pEC50 is −log10 of the EC50, conventionally taken in molar units. Lower therefore signals a high EC50. Turning to `CC[C@H](C)[C@H](NC(=O)[C@H](C)NC(=O)[C@@H](NC(=O)[C@H](Cc1ccccc1)N(C)C)C(C)C)C(=O)N[C@@H](Cc1ccccc1)C(=O)N[C@H](C(=O)N[C@@H](Cc1ccc(O)cc1)C(=O)NCC(=O)N[C@@H](CCC(=O)O)C(=O)N[C@@H](CC(C)C)C(=O)N[C@@H](C)C(=O)N[C@H](CCCNC(=N)N)C(=O)N[C@@H](CC(C)C)C(=O)N[C@@H](CCCCN)C(N)=O)[C@@H](C)O` (NMe2Phe-VAIFTYGELA[dR]LK-NH2), the ED50 in data set [1] was 0.003 nmol. The pEC50 in data set [3] was 7.74. For the same compound, the IC50 at motilin receptor was 0.708 nM.
Taken in the same sequence, the figures for `CC[C@H](C)[C@H](NC(=O)[C@@H]1CCCN1C(=O)[C@@H](NC(=O)[C@H](Cc1ccccc1)N(C)C)C(C)C)C(=O)N[C@@H](Cc1ccccc1)C(=O)N[C@H](C(=O)N[C@@H](Cc1ccc(O)cc1)C(=O)NCC(=O)N[C@@H](CCC(=O)O)C(=O)N[C@@H](CC(C)C)C(=O)N[C@@H](C)C(=O)N[C@H](CCCNC(=N)N)C(=O)N[C@@H](CC(C)C)C(=O)N[C@@H](CCCCN)C(N)=O)[C@@H](C)O` (NMe2Phe-VPIFTYGELA[dR]LK-NH2) were 0.003 nmol, 7.64 and 1.23 nM.
In the same order, the values of `CC[C@H](C)[C@H](NC(=O)[C@@H]1CCCN1C(=O)[C@@H](NC(=O)[C@H](Cc1ccccc1)N(C)C)C(C)C)C(=O)N[C@@H](Cc1ccccc1)C(=O)N[C@H](C(=O)N[C@@H](Cc1ccc(O)cc1)C(=O)NCC(=O)N[C@@H](CCC(=O)O)C(=O)N[C@@H](CC(C)C)C(=O)N[C@@H](CCC(N)=O)C(=O)N[C@H](CCCNC(=N)N)C(=O)N[C@@H](CC(C)C)C(=O)N[C@@H](CCCCN)C(N)=O)[C@@H](C)O` (NMe2Phe-VPIFTYGELQ[dR]LK-NH2) are 0.002 nmol, 7.73 and 1.17 nM.
Taken in the same sequence, the figures for `CC[C@H](C)[C@H](NC(=O)[C@H](C)NC(=O)[C@@H](NC(=O)[C@H](Cc1ccccc1)[N+](C)(C)C)C(C)C)C(=O)N[C@@H](Cc1ccccc1)C(=O)N[C@H](C(=O)N[C@@H](Cc1ccc(O)cc1)C(=O)NCC(=O)N[C@@H](CCC(=O)O)C(=O)N[C@@H](CC(C)C)C(=O)N[C@@H](C)C(=O)N[C@H](CCCNC(=N)N)C(=O)N[C@@H](CC(C)C)C(=O)N[C@@H](CCCCN)C(N)=O)[C@@H](C)O` (X1-VAIFTYGELA[dR]LK-NH2) were 0.001 nmol, 7.59 and 1.91 nM.
In data set [1], `CC[C@H](C)[C@H](NC(=O)[C@H](C)NC(=O)[C@@H](NC(=O)[C@H](Cc1ccccc1)[N+](C)(C)C)C(C)C)C(=O)N[C@@H](Cc1ccccc1)C(=O)N[C@H](C(=O)N[C@@H](Cc1ccc(O)cc1)C(=O)NCC(=O)N[C@@H](CCC(=O)O)C(=O)N[C@@H](CC(C)C)C(=O)N[C@@H](C)C(=O)N[C@H](CCCNC(=N)N)C(=O)N[C@@H](CC(C)C)C(=O)N[C@H](CCCCN)C(N)=O)[C@@H](C)O` (X1-VAIFTYGELA[dR]L[dK]-NH2) gave an ED50 of 0.007 nmol. This compound also displayed a pEC50 in data set [3] of 7.55. Moreover, the IC50 at motilin receptor is 1.15 nM.
On to `CC[C@H](C)[C@H](NC(=O)[C@H](C)NC(=O)[C@@H](NC(=O)[C@H](Cc1ccccc1)[N+](C)(C)C)C(C)C)C(=O)N[C@@H](Cc1ccccc1)C(=O)N[C@H](C(=O)N[C@@H](Cc1ccc(O)cc1)C(=O)NCC(=O)N[C@@H](CCC(=O)O)C(=O)N[C@@H](CC(C)C)C(=O)N[C@@H](CCC(N)=O)C(=O)N[C@H](CCCNC(=N)N)C(=O)N[C@@H](CC(C)C)C(=O)N[C@@H](CCCCN)C(N)=O)[C@@H](C)O` (X1-VAIFTYGELQ[dR]LK-NH2), for which the ED50 in data set [1] was determined as 0.89 nmol. In data set [3], the pEC50 is on record as 7.32. For the same compound, the IC50 on motilin receptor was 1.91 nM.
`CC[C@H](C)[C@H](NC(=O)[C@@H]1CCCN1C(=O)[C@@H](NC(=O)[C@H](Cc1ccccc1)[N+](C)(C)C)C(C)C)C(=O)N[C@@H](Cc1ccccc1)C(=O)N[C@H](C(=O)N[C@@H](Cc1ccc(O)cc1)C(=O)NCC(=O)N[C@@H](CCC(=O)O)C(=O)N[C@@H](CC(C)C)C(=O)N[C@@H](CCC(N)=O)C(=O)N[C@H](CCCNC(=N)N)C(=O)N[C@@H](CC(C)C)C(=O)N[C@H](CCC(N)=O)C(N)=O)[C@@H](C)O` (X1-VPIFTYGELQ[dR]L[dQ]-NH2) gave a pEC50 in data set [3] of 7.39. In data set [2], this compound gave a T1/2 of 104. Also, the IC50 at motilin receptor was 1.95 nM.
The compound `CC[C@H](C)[C@H](NC(=O)[C@H](C)NC(=O)[C@@H](NC(=O)[C@H](Cc1ccccc1)NC)C(C)C)C(=O)N[C@@H](Cc1ccccc1)C(=O)N[C@H](C(=O)N[C@@H](Cc1ccc(O)cc1)C(=O)NCC(=O)N[C@@H](CCC(=O)O)C(=O)N[C@@H](CC(C)C)C(=O)N[C@@H](C)C(=O)N[C@H](CCCNC(=N)N)C(=O)N[C@@H](CC(C)C)C(=O)N[C@H](CCCCN)C(N)=O)[C@@H](C)O` [[1-N-Methylphenylalanine, 3-alaninc, 11-alanine, 12-D-arginine, 13-Leucine, 14-D-lysine]motilin-(1-14)-peptide Amide (Porcine) Tris-trifluoroacetate Salt] (H-[NMeF]VAIFTYGELA[dR]L[dK]-NH2) came in with an ED50 in data set [1] of 0.024 nmol. The compound further came in with a pEC50 in data set [3] of 7.80. Also, the IC50 at motilin receptor is 0.447 nM.
In data set [3], `CC[C@H](C)[C@H](NC(=O)[C@@H]1CCCN1C(=O)[C@@H](NC(=O)[C@H](Cc1ccccc1)NC)C(C)C)C(=O)N[C@@H](Cc1ccccc1)C(=O)N[C@H](C(=O)N[C@@H](Cc1ccc(O)cc1)C(=O)NCC(=O)N[C@@H](CCC(=O)O)C(=O)N[C@@H](CC(C)C)C(=O)N[C@@H](CCC(N)=O)C(=O)N[C@@H](CCCNC(=N)N)C(=O)N[C@@H](CC(C)C)C(=O)N[C@@H](CCC(N)=O)C(=O)O)[C@@H](C)O` [[N-MePhe^1, Leu^13]pMOT(1-14)] (H-[NMeF]VPIFTYGELQRLQ-OH) came in with a pEC50 of 7.64. In data set [2], the T1/2 is reported as 12.8. The IC50 at motilin receptor was 2.63 nM.
